Assays:
[1] = system: BAD S112 phosphorylation in H1299 cells overexpressing PIM-1 (H1299Pim1); assay: BAD S112 phosphorylation inhibition assay (in Cell ELISA); assay type: cell-based; settings: Homo sapiens, NCI-H1299, 4 hours, medium without FBS, read-out: BAD PH 1299PIM 1 ELIWO
Procedure: The efficacy of the compounds of the invention on the inhibition of BAD phosphorylation was measured by an in Cell ELISA.
Materials: H1299 cells overexpressing PIM-1 (H1299Pim1). DMSO Plates: 96-well-Polystyrene, Untreated, Round-Bottom plates from Costar (Cat #3797). Cell Plates: 96-Flat bottom biocoated with Poly-D-Lysin plates with lid from Becton Dickinson (Cat #354651). Cell Culture Medium: DMEM high glucose, 10% Fetal Bovine Serum, 2 mM L-Glutamine, P/S. Antibodies: phospho BAD S112 antibody from Cell Signaling (cat. #9291S), anti-rabbit conjugated with peroxidase from Amersham (cat. #3619). Reagent: SuperSignal ELISA femto from Pierce (cat. #1001110).
Procedure: Cells were seeded in 15000 cells per 200 μl per well into 96-well plates and incubated for 16 h at 37° C., 5% CO2. On day two, nine serial 1:2 compound dilutions were made in DMSO in a 96-well plate. The compounds were added to duplicate wells in 96-well cell plates using a FX BECKMAN robot (Beckman Coulter) and were incubated at 37° C. under CO2 atmosphere in medium without fetal bovine serum (FBS). After 4 hours, relative levels of BAD S112 phosphorylation were measured in Cell ELISA using SuperSignal ELISA Femto substrate (Pierce) and read on VICTOR (Perkin Elmer). EC50 values were calculated using ActivityBase from IDBS.

PIM-3 = molecular target: T1, PIM-3 (Homo sapiens, UniProt Q86V86); assay: Protein PIM kinase assay (ADP Hunter Plus); assay type: biochemical; settings: 100 μM ATP, 100 μM PIMtide
T1 construct: purchased Millipore 14-738
Procedure: (§1) PIM kinase activities were measured by using the commercial ADP Hunter™ Plus assay (DiscoveRx Ref. #33-016), a homogeneous assay measuring ADP accumulation, as a universal product of kinase activity. PIM-1 and PIM-2 proteins were obtained by purification as it is described by Martinez-Gonzalez et. al. Eur. J. Med Chem. 2019, 168, 87-109 and PIM-3 was acquired from Millipore (Cat #14-738). The assay was done following general manufacturer recommendations and adapting protein and substrates concentrations to optimal conditions. Kinase buffer was 15 mM HEPES, pH 7.4, 20 mM NaCl, 1 mM EGTA, 0.02% Tween-20, 10 mM MgCl2 and 0.1 mg/mL LBGG (bovine y-globulin). All PIM kinases assays were done at 100 μM PIM tide (ARKRRRHPSGPPTA), as peptide substrate, and 100 μM ATP. Protein concentration was 50, 350 and 200 pg/μl for PIM-1, 2 and 3, respectively. In order to calculate the IC50 of described compounds, serial 1:3 dilutions were prepared and the reaction started by addition of ATP. Incubation was done for 1 h at 25° C. Reagents A and B (DiscoveRx) were sequentially added to the wells and plates were incubated for 30 min at 37° C. Fluorescence counts were read in a Victor instrument (Perkin Elmer) with the recommended settings (544 and 580 nm as excitation and emission wavelengths, respectively). Values were plot against inhibitor concentration and fit to a sigmoid dose-response curve using Activity Base software from IDBS.

PIM-2 = molecular target: T2, PIM-2 (Homo sapiens, UniProt Q9P1W9); assay: Protein PIM kinase assay (ADP Hunter Plus); assay type: biochemical; settings: 100 μM ATP, 100 μM PIMtide
T2 construct: made in house
T2 sequence (Q9P1W9 whole entry): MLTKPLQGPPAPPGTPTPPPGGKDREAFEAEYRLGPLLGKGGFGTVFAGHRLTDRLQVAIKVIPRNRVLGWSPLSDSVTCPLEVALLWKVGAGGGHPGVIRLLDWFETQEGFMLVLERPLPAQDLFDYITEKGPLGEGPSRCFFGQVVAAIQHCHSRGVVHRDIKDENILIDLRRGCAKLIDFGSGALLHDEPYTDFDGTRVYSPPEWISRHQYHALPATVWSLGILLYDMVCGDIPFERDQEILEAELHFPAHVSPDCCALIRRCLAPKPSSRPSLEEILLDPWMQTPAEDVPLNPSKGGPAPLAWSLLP
Procedure: as §1

PIM-1 = molecular target: T3, PIM-1 (Homo sapiens, UniProt P11309); assay: Protein PIM kinase assay (ADP Hunter Plus); assay type: biochemical; settings: 100 μM ATP, 100 μM PIMtide
T3 construct: made in house
T3 sequence (P11309 whole entry): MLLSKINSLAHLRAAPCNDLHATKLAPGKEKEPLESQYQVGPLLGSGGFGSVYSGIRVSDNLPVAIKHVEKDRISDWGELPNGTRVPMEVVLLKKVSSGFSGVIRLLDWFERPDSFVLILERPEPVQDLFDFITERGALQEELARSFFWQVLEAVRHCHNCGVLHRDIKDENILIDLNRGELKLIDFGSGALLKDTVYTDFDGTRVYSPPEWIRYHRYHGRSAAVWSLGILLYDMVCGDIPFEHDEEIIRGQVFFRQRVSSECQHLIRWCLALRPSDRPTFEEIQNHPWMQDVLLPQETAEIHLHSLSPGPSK
Procedure: as §1

T47D = assay: Combination antiproliferation with Example 1; assay type: cell-based; design: key to Synergy: ++++ indicates a very strong synergistic effect; +++ a strong synergistic effect; ++ a synergistic effect; settings: agent in combination with Example 1, T47D, Breast Cancer
Procedure: (§2) The cells were harvested just before reaching confluency, counted with a haemocytometer and diluted with media. Cells were then seeded in 96-well microtiter plates at a density of 4,000 cells/well. Cells were incubated for 24 hours before adding the compounds.
(§3) Compounds were weighed out and diluted with DMSO to a final concentration of 10 mM. From here a “mother plate” with serial dilutions was prepared at 200× the final concentration in the culture. The final concentration of DMSO in the tissue culture media should not exceed 0.5%. The appropriate volume of the compound solution (2 μl) was added automatically (Beckman FX 96 tip) to 0.2 ml media to make it up to the final concentration for each drug.
(§4) Each concentration was assayed in duplicate. Cells were exposed to the compounds for 72 h and then processed for CellTiter-Glo® Luminescent Cell Viability Assay (Promega) read out according to manufacturer's Instruction and read on EnVision (Perkin Elmer). GI50 values were calculated using ActivityBase from IDBS.
(§5) A combination index score was calculated by the Chou and Talalay method (CalcuSyn software, Biosoft).

HCT116 = assay: Combination antiproliferation with Example 1; assay type: cell-based; design: key to Synergy: ++++ indicates a very strong synergistic effect; +++ a strong synergistic effect; ++ a synergistic effect; settings: agent in combination with Example 1, HCT116, Colon Cancer
Procedure: as §2, §3, §4, §5

Jeko-1 = assay: Combination antiproliferation with Example 1; assay type: cell-based; design: key to Synergy: ++++ indicates a very strong synergistic effect; +++ a strong synergistic effect; ++ a synergistic effect; settings: agent in combination with Example 1, Jeko-1, Mantle Cell Lymphoma
Procedure: as §2, §3, §4, §5

A549 = assay: Combination antiproliferation with Example 1; assay type: cell-based; design: key to Synergy: ++++ indicates a very strong synergistic effect; +++ a strong synergistic effect; ++ a synergistic effect; settings: agent in combination with Example 1, A549, Lung Cancer
Procedure: as §2, §3, §4, §5

DU145 = assay: Combination antiproliferation with Example 1; assay type: cell-based; design: key to Synergy: ++++ indicates a very strong synergistic effect; +++ a strong synergistic effect; ++ a synergistic effect; settings: agent in combination with Example 1, DU145, Prostate Cancer
Procedure: (§6) The cells were harvested just before reaching confluency, counted with a haemocytometer and diluted with media. Cells were then seeded in 96-well microtiter plates at a density of 4,000 cells/well. […] Compounds were weighed out and diluted with DMSO to a final concentration of 10 mM. From here a “mother plate” with serial dilutions was prepared at 200× the final concentration in the culture. The final concentration of DMSO in the tissue culture media should not exceed 0.5%. The appropriate volume of the compound solution (2 μl) was added automatically (Beckman FX 96 tip) to 0.2 ml media to make it up to the final concentration for each drug. Each concentration was assayed in duplicate. Cells were exposed to the compounds for 72 h and then processed for CellTiter-Glo® Luminescent Cell Viability Assay (Promega) read out according to manufacturer's Instruction and read on EnVision (Perkin Elmer). GI50 values were calculated using ActivityBase from IDBS. […] A combination index score was calculated by the Chou and Talalay method (CalcuSyn software, Biosoft). The combination partner compounds were as follows: • the PI3K inhibitor pictisilib (GDC-0941); • the MEK inhibitor merdametinib (PD-0325901); and the EGFR and ErbB2 inhibitor lapatinib

SKMEL19 = assay: Combination antiproliferation with Example 1; assay type: cell-based; design: key to Synergy: ++++ indicates a very strong synergistic effect; +++ a strong synergistic effect; ++ a synergistic effect; settings: agent in combination with Example 1, SKMEL19, Melanoma
Procedure: as §6

HT29 = assay: Combination antiproliferation with Example 1; assay type: cell-based; design: key to Synergy: ++++ indicates a very strong synergistic effect; +++ a strong synergistic effect; ++ a synergistic effect; settings: agent in combination with Example 1, HT29, Colon Cancer
Procedure: as §6

U87MG = assay: Combination antiproliferation with Example 1; assay type: cell-based; design: key to Synergy: ++++ indicates a very strong synergistic effect; +++ a strong synergistic effect; ++ a synergistic effect; settings: agent in combination with Example 1, U87MG, Glioblastoma
Procedure: as §2, §3, §4, §5

HCC1143 = assay: In vitro potency against breast cancer cell lines (CellTiter Glo); assay type: cell-based; settings: Homo sapiens, HCC1143, 72 h; read-out: absolute IC50 HCC1143
Procedure: (§7) To prepare the complete medium FBS and appropriate additives were added according to the information sheet provided by the vendor and mixed gently. The cell name and complete medium and passage number marked on the flask were checked, and the culture medium removed and discarded using a vacuum pump. […] 3.0 ml of Trypsin-EDTA solution was added to the flask and the cells observed under an inverted microscope until cell layer is dispersed. 8.0 ml of complete growth medium was added and the cells aspirated by gently pipetting. The cell suspension was transferred to a centrifuge tube and centrifuged at 800-1000 rpm for 3-5 minutes. The supernatant was discarded using a vacuum pump, and an appropriate volume of complete medium added. The cell pellet was suspended by gently pipetting, and the cell numbers counted with Vi-cell XR and the cells adjusted to appropriate density. 100 μL of cell suspension to 96-well opaque-walled clear bottom plates was added according to the planned plate layout and the plates placed in the CO2 incubator overnight.
(§8) c. […] Meanwhile the day 0 plate was measured by Cell TiterGlo as listed below.
(§9) d. Cells were incubated with the compounds for 72 h at 5% CO2, 37° C.
(§10) The CellTiter-Glo buffer was thawed and equilibrated to room temperature prior to use. The lyophilized CellTiter-Glo substrate was equilibrated to room temperature prior to use. The appropriate volume of CellTiter-Glo buffer was transferred into the amber bottle containing CellTiter-Glo substrate to reconstitute the lyophilized enzyme/substrate mixture, thereby forming the CellTiter-Glo reagent. Mixing was carried out by gently vortexing, swirling or by inverting the contents to obtain a homogeneous solution, the CellTiter-Glo substrate going into solution easily in less than one minute.
(§11) The plate and its contents were equilibrated to room temperature for approximately 30 minutes, after which 100 μL of CellTiter-Glo reagent was added to the assay plate by Multidrop Combi instrument and the contents mixed for 10 minutes on an orbital shaker to induce cell lysis. The plate was allowed to incubate at room temperature for 10 minutes to stabilize luminescent signal and the clear bottom pasted with white back seal and the luminescence recorded with Enspire with the settings: Luminescence, measurement time 0.1 ms.

T-47D = assay: as above; assay type: cell-based; settings: Homo sapiens, T47D, 72 h; read-out: absolute IC50 T-47D
Procedure: as §7, §8, §9, §10, §11

BT-474 = assay: as above; assay type: cell-based; settings: Homo sapiens, BT-474, 72 h; read-out: absolute IC50 BT-474
Procedure: as §7, §8, §9, §10, §11

KG-1 = assay: In vitro potency against leukemia cell lines (CellTiter Glo); assay type: cell-based; settings: Homo sapiens, 72 hours, read-out: absolute IC50 KG-1
Procedure: as §7, §8, §9, §11
(§12) In all cases, the incubation time was 72 hours and the cell lines were grown as a suspension. The seeding density was […] in a 96 well plate.

OCI-M1 = assay: as above; assay type: cell-based; settings: 72 hours, read-out: absolute IC50 OCI-M1
Procedure: as §7, §8, §9, §11, §12

| EC50 [1] | IC50 (PIM-3) | IC50 (PIM-2) | IC50 (PIM-1) | Compound | C.I. (combination index) (DU145) | Synergy (DU145) | C.I. (combination index) (SKMEL19) | Synergy (SKMEL19) | further results |
| --- | --- | --- | --- | --- | --- | --- | --- | --- | --- |
| 7.11 nM | 1 to 5 nM | 1 to 5 nM | < 1 nM | CN1CCOc2c1c(N[C@H]1CC[C@@](C)(O)CC1)nn1c(-c3ccc(F)c(C(F)(F)F)c3)nnc21 [Example 2, 4-[3-(4-Fluoro-3-trifluoromethyl-phenyl)-6-methyl-7,8-dihydro-6H-9-oxa-1,2,3a,4,6-pentaaza-cyclopenta[a]naphthalen-5-ylamino]-1-methyl-cyclohexanol] | – | – | – | – | – |
| 4.15 nM | 1 to 5 nM | 5 to 10 nM | < 1 nM | CC1(O)CCC(Nc2nn3c(-c4cccc(OC(F)(F)F)c4)nnc3c3c2CCCO3)CC1 (centres unmarked) [Example 3, 1-Methyl-4-[3-(3-trifluoromethoxy-phenyl)-7,8-dihydro-6H-9-oxa-1,2,3a,4-tetraaza-cyclopenta[a]naphthalen-5-ylamino]-cyclohexanol] | – | – | – | – | – |
| – | – | – | – | CS(=O)(=O)CCNCc1ccc(-c2ccc3ncnc(Nc4ccc(OCc5cccc(F)c5)c(Cl)c4)c3c2)o1 [Lapatinib, lapatinib] | 0.52 | ++ | – | – | C.I. (combination index) (T47D): 0.27; Synergy (T47D): +++; C.I. (combination index) (HCT116): 0.51; Synergy (HCT116): ++; C.I. (combination index) (Jeko-1): 0.70; Synergy (Jeko-1): ++; C.I. (combination index) (A549): 0.47; Synergy (A549): ++ |
| – | – | – | – | O=C(NOC[C@H](O)CO)c1ccc(F)c(F)c1Nc1ccc(I)cc1F [Merdametinib, merdametinib] | 0.55 | ++ | 0.038 | ++++ | C.I. (combination index) (HT29): 0.62; Synergy (HT29): ++ |
| – | – | – | – | CS(=O)(=O)N1CCN(Cc2cc3nc(-c4cccc5[nH]ncc45)nc(N4CCOCC4)c3s2)CC1 [Pictisilib, pictisilib] | 0.24 | +++ | 0.54 | ++ | C.I. (combination index) (U87MG): 0.46; Synergy (U87MG): ++ |
| – | – | – | – | CN[C@@H]1C[C@H]2O[C@@](C)([C@@H]1OC)n1c3ccccc3c3c4c(c5c6ccccc6n2c5c31)C(=O)NC4 [Staurosporine] | – | – | – | – | IC50 (HCC1143): 11 nM; IC50 (T-47D): 219 nM; IC50 (BT-474): 76.6 nM; IC50 (KG-1): 23.2 nM; IC50 (OCI-M1): 48.4 nM |

Source: patent publication US20250042918A1, “COMPOUNDS” (Fundación Del Sector Públlco Estatal Centro Nacional De …, priority 2021, published 2025)
